This test deals with MAPK14 (UniProt Q16539). In words: Inhibition of MAPK14 Kinase Activity.

Each structure is given as a SMILES string.

Sequence of MAPK14 (Q16539 whole entry, looked up): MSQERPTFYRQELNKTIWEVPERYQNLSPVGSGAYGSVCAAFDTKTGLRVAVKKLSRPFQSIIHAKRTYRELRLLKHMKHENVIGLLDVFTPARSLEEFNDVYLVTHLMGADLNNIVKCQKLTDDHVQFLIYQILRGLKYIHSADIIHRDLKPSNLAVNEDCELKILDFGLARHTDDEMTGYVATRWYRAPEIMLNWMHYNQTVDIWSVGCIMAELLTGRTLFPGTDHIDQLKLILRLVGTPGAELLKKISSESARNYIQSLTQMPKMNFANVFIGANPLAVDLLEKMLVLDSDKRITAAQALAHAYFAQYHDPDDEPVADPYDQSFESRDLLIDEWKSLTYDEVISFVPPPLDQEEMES

`CC(C)S(=O)(=O)n1c(N)nc2ccc(-c3c(-c4ccccc4)ncn3Cc3ccccn3)cc21` showed an IC50 of at most 5 µM.

In the case of `CC(C)S(=O)(=O)n1c(N)nc2ccc(-c3c(-c4ccccc4)ncn3CC3CC3)cc21`, the IC50 was at most 5 µM.

With `CC(C)S(=O)(=O)n1c(N)nc2ccc(-c3nc(-c4ccc(OC(F)(F)F)cc4)[nH]c3-c3ccccc3)cc21`, the IC50 is at most 5 µM.

In turn, `CC(C)S(=O)(=O)n1c(N)nc2ccc(-c3c(-c4ccccc4)ncn3Cc3ccc(F)cc3)cc21` showed an IC50 of at most 5 µM.

Compound `CC(C)S(=O)(=O)n1c(N)nc2ccc(-c3nc(-c4ccc(N)s4)[nH]c3-c3ccccc3)cc21` came in with an IC50 of at most 5 µM.

Turning to `CC(C)S(=O)(=O)n1c(N)nc2ccc(-c3nc(-c4ccc(F)cc4F)[nH]c3-c3ccc(F)cc3F)cc21`, the IC50 was at most 5 µM.

`CC(C)S(=O)(=O)n1c(N)nc2ccc(-c3nc(C4CCCCC4)[nH]c3-c3ccc(F)cc3)cc21` had an IC50 of at most 5 µM.

`Cc1cc(-c2ccc3nc(N)n(S(=O)(=O)C(C)C)c3c2)n(-c2ccccc2)n1` had an IC50 of at most 5 µM.

Regarding `CC(C)S(=O)(=O)n1c(N)nc2ccc(-c3nc(-c4ncc[nH]4)[nH]c3-c3ccccc3)cc21`, the 50% inhibitory concentration (IC50) is at most 5 µM.

Take `CC(C)S(=O)(=O)n1c(N)nc2ccc(-c3c(-c4ccccc4)ncn3C3CC(C)(C)NC(C)(C)C3)cc21`: the IC50 is at most 5 µM.

Turning to `CC(C)S(=O)(=O)n1c(N)nc2ccc(-c3nc(-c4ccccc4SC(F)(F)F)[nH]c3-c3ccccc3)cc21`, the IC50 was at most 5 µM.

Consider `CC(C)N1CCC(n2cnc(-c3ccccc3)c2-c2ccc3nc(N)n(S(=O)(=O)C(C)C)c3c2)CC1`, for which the IC50 was at most 5 µM.

`CC(C)S(=O)(=O)n1c(N)nc2ccc(-c3nc(-c4cccc(OCCN5CCOCC5)c4)[nH]c3-c3ccccc3)cc21` registered an IC50 of at most 5 µM.

`CC(C)S(=O)(=O)n1c(N)nc2ccc(-c3c(-c4ccccc4)ncn3CCO)cc21` had an IC50 of at most 5 µM.

`CC(C)S(=O)(=O)n1c(N)nc2ccc(-c3c(-c4ccccc4)ncn3C3CCCC3)cc21` gave an IC50 of at most 5 µM.

In turn, `CC(C)S(=O)(=O)n1c(N)nc2ccc(-c3c(-c4ccc(F)cc4F)ncn3[C@H]3CC[C@H](O)CC3)cc21` showed an IC50 of at most 5 µM.

With `NCCc1nc2ccc(-c3c(-c4ccccc4)ncn3C3CCCCC3)cc2s1`, the IC50 is at most 5 µM.

The compound `CC(C)S(=O)(=O)n1c(N)nc2ccc(-c3nc(-c4ccc([N+](=O)[O-])cc4)[nH]c3-c3ccccc3)cc21` gave an IC50 of at most 5 µM.

As to `CC(C)S(=O)(=O)n1c(N)nc2ccc(-c3nc(-c4ccc(F)cc4F)[nH]c3-c3ccccc3)cc21`, the IC50 is at most 5 µM.

In turn, `C#Cc1nc(-c2ccccc2)c(-c2ccc3nc(N)n(S(=O)(=O)C(C)C)c3c2)n1C1CCCCC1` showed a concentration for half-maximal inhibition (IC50) of at most 5 µM.

On to `CC(C)S(=O)(=O)n1c(N)nc2ccc(-c3nc(CNCCN(C)C)[nH]c3-c3ccccc3)cc21`, for which the IC50 is at most 5 µM.

Compound `CC(C)S(=O)(=O)n1c(N)nc2ccc(-c3nc(-c4cccc(OCCN5CCCC5)c4)[nH]c3-c3ccccc3)cc21` came in with an IC50 of at most 5 µM.

With `CC(C)S(=O)(=O)n1c(N)nc2ccc(-c3nc(-c4c(F)cccc4C(F)(F)F)[nH]c3-c3ccccc3)cc21`, the IC50 was at most 5 µM.

Compound `CC(C)S(=O)(=O)n1c(N)nc2ccc(-c3c(-c4ccccc4)ncn3[C@H](CO)CC3CCCCC3)cc21` showed an IC50 of at most 5 µM.

The compound `CC(C)S(=O)(=O)n1c(N)nc2ccc(-c3c(-c4cccc(F)c4)ncn3C3CC3)cc21` registered an IC50 of at most 5 µM.

Consider `CC(C)S(=O)(=O)n1c(N)nc2ccc(C3C(c4ccccc4)N=C4Sc5ccccc5N43)cc21` (stereo not drawn), for which the IC50 was at most 5 µM.

Take `CC(C)S(=O)(=O)n1c(N)nc2ccc(-c3nc(-c4ccc(OCCCN(C)C)c(F)c4)[nH]c3-c3ccccc3)cc21`: the concentration for half-maximal inhibition (IC50) was at most 5 µM.

Consider `CC(C)S(=O)(=O)n1c(N)nc2ccc(-c3c(-c4ccccc4)ncn3Cc3ccncc3)cc21`, for which the IC50 was at most 5 µM.

The compound `CC(C)S(=O)(=O)n1c(N)nc2ccc(-c3nc(-c4ccc([N+](=O)[O-])cc4F)[nH]c3-c3ccccc3)cc21` yielded an IC50 of at most 5 µM.

`CC(C)S(=O)(=O)n1c(N)nc2ccc(-c3c(-c4ccccc4)ncn3C)cc21` gave an IC50 of at most 5 µM.

Take `CC(C)S(=O)(=O)n1c(N)nc2ccc(-c3nc(C(C)(C)C)[nH]c3-c3ccccc3)cc21`: the half-maximal inhibitory concentration (IC50) is at most 5 µM.

In turn, `CC(C)S(=O)(=O)n1c(N)nc2ccc(-c3c(-c4ccccc4F)nc(-c4ccc(Cl)cc4)n3C3CC3)cc21` gave an IC50 of at most 5 µM.

In the case of `CC(C)S(=O)(=O)n1c(N)nc2ccc(-c3nc[nH]c3-c3ccc(F)cc3F)cc21`, the IC50 is at most 5 µM.

As to `CC(C)S(=O)(=O)n1c(N)nc2ccc(-c3c(-c4ccccc4)ncn3C3CC3)cc21`, the IC50 was at most 5 µM.

In the case of `CC(C)S(=O)(=O)n1c(CCN)nc2ccc(-c3nc(-c4c(F)cccc4F)[nH]c3-c3ccccc3)cc21`, the IC50 is at most 5 µM.

For the compound `CC(C)S(=O)(=O)n1c(N)nc2ccc(-c3nc(-c4ccc(N(C)C)cc4)[nH]c3-c3ccccc3)cc21`, the half-maximal inhibitory concentration (IC50) is at most 5 µM.

With `CC(C)S(=O)(=O)n1c(N)nc2ccc(-c3nc(-c4c(F)cccc4F)[nH]c3-c3ccccc3)cc21`, the half-inhibitory concentration (IC50) was at most 5 µM.

The compound `CC(C)S(=O)(=O)n1c(N)nc2ccc(-c3nc(-c4c(Cl)cccc4Cl)[nH]c3-c3ccc(F)cc3)cc21` showed an IC50 of at most 5 µM.

Compound `CC(C)S(=O)(=O)n1c(N)nc2ccc(-c3nc(-c4ccc(N5CCCC5)cc4)[nH]c3-c3ccccc3)cc21` yielded an IC50 of at most 5 µM.

`CC(C)S(=O)(=O)n1c(N)nc2ccc(-c3c(-c4ccccc4)ncn3C3CCC(NC(=O)OC(C)(C)C)CC3)cc21` (stereo not drawn) yielded a 50% inhibitory concentration (IC50) of at most 5 µM.

For the compound `CC(C)S(=O)(=O)n1c(N)nc2ccc(-c3nc(-c4ccc(OCCN(C)C)cc4)[nH]c3-c3ccccc3)cc21`, the IC50 was at most 5 µM.

In turn, `CC(C)S(=O)(=O)n1c(N)nc2ccc(-c3nc(CN4CCOCC4)[nH]c3-c3ccccc3)cc21` returned an IC50 of at most 5 µM.

`CC(C)S(=O)(=O)n1c(N)nc2ccc(-c3nc(C4CCN(CCN(C)C)CC4)[nH]c3-c3ccccc3)cc21` displayed an IC50 of at most 5 µM.

The compound `CC(C)S(=O)(=O)n1c(N)nc2ccc(-c3c(-c4ccccc4F)ncn3[C@H]3CC[C@H](O)CC3)cc21` registered an IC50 of at most 5 µM.

`CC(C)S(=O)(=O)n1c(N)nc2ccc(-c3nc(CNCCN4CCCCC4)[nH]c3-c3ccccc3)cc21` had a half-inhibitory concentration (IC50) of at most 5 µM.

`CC(C)S(=O)(=O)n1c(N)nc2ccc(-c3nc(C4CC4)[nH]c3-c3ccc(F)cc3)cc21` had an IC50 of at most 5 µM.

Take `CC(C)S(=O)(=O)n1c(N)nc2ccc(-c3nc(-c4cccs4)[nH]c3-c3cccc(C(F)(F)F)c3)cc21`: the IC50 is at most 5 µM.

With `CC(C)S(=O)(=O)n1c(N)nc2ccc(-c3nc(C4CCOCC4)[nH]c3-c3ccc(F)cc3)cc21`, the IC50 is at most 5 µM.

For the compound `CC(C)n1cnc(-c2ccc(F)cc2)c1-c1ccc2nc(N)n(S(=O)(=O)C(C)C)c2c1`, the IC50 is at most 5 µM.

Turning to `CC(C)S(=O)(=O)n1c(N)nc2ccc(-c3nc(-c4cccc(F)c4F)[nH]c3-c3ccccc3)cc21`, the IC50 was at most 5 µM.

In turn, `CC(C)S(=O)(=O)n1c(N)nc2ccc(-c3c(-c4ccccc4)ncn3C3CCC(=O)CC3)cc21` registered an IC50 of at most 5 µM.

`CCN(CC)CCOc1cccc(-c2nc(-c3ccc4nc(N)n(S(=O)(=O)C(C)C)c4c3)c(-c3ccccc3)[nH]2)c1` registered an IC50 of at most 5 µM.

The compound `CC(C)S(=O)(=O)n1c(N)nc2ccc(-c3nc(-c4ccccc4OC(F)(F)F)[nH]c3-c3ccccc3)cc21` had an IC50 of at most 5 µM.

The term IC50 denotes the concentration needed to halve the response being measured. A lower IC50 goes with inhibition by little substance.
